{"source": "patent US7658941B2", "about": "“Warming and nonirritating lubricant compositions and method of comparing irritation” (Johnson & Johnson Consumer Companies, Inc., priority 2002, dated 2010)", "key": {"[1]": {"experiment": "Generation of warmth by mixing equal quantity with water", "format": "physicochemical", "settings": "for Actual Temperature (° F.) / Rise in Temperature (° F.) (Expected Minus Actual): 20 ml mixed with 20 ml of water for two minutes", "description": "The temperature of the product and that of water were recorded before water was added to the product. After the addition of water the mixture was mixed for two minutes and the actual temperature was recorded. Glycerin, Propylene Glycol and Honey are the ingredients in Composition 1. It is clear from Table 1 that when mixed with water the temperature of the mixture rises by 9.0° F for Glycerin, 13.5° F. for Propylene Glycol, 17.0° F. for Polyethylene Glycol 400 and 12.5° F. for composition Example 1 of this invention.\nCalculated Rise in Temperature: In order to determine the expected rise in temperature from each composition, the percentage of each component in such composition was multiplied by the temperature increase generated by such component alone to obtain its expected contribution to the temperature increase. These values were added together to calculate the total expected temperature rise. These values were then compared with the actual temperature rise generated by each composition. For example, the calculated rise in temperature generated by the “K-Y Warming®”, composition in the table above was found as follows and compared with the actual temperature rise to determine the unexpectedly higher generation of warmth of the composition:\nCompositions 10, 11 and 12 were tested in accordance with the following procedure to determine the extent to which said compositions generate warmth upon mixture with water. Data was generated by mixing 20 ml of each composition with 20 ml of water. The temperature of the composition and that of water were recorded before water was added to the composition After the addition of water the contents were mixed for two minutes and the actual temperature was recorded."}, "[2]": {"test_system": "epithelial cells derived from human skin", "format": "cell-based", "experimental": "The method designated as EpiDerm™ Skin Model assay uses the epithelial cells derived from human skin as target cells and is commercially available from the MatTek Corporation. […] The test materials are applied directly to the epithelial cell culture surface. […] The toxicity of the test material is evaluated on the basis of relative tissue viability vs time. The actual Tissue Viability is determined by NAD(P)H-dependent microsomal enzyme reduction of MTT in control and test article treated cultures. The negative control used in this assay was deionized water and the positive control was Triton X-100. The exposed cell cultures were incubated for 4, 8, 16 and 24 hours and assayed for reduction of MTT. […] Relative irritation in this assay is expressed by the percent survival rate of epiderm cells over a period of 24 hours. Products with higher relative survival rates are less toxic or less irritating while the ones with lower survival rates are more toxic or irritating.\nThe data is plotted as % Viable Cells vs the Exposure Time ranging from 4 to 24 hours."}}, "data": [{"compound": "OCC(O)CO", "note": "[Glycerin]", "values": [{"measurement": "Actual Temperature (° F.)", "setting": "[1]", "result": 79.0, "unit": "° F."}, {"measurement": "Rise in Temperature (° F.) (Expected Minus Actual)", "setting": "[1]", "result": 9.0, "unit": "° F."}, {"measurement": "expected contribution of component to the temperature increase", "setting": "[1]; in K-Y Warming (Composition 1)", "result": 4.05}]}, {"compound": "Triton X-100", "values": [{"measurement": "% viable cells", "setting": "[2]", "result": 22.4, "unit": "%"}]}, {"compound": "CC(O)CO", "note": "(stereo not drawn) [Propylene Glycol]", "values": [{"measurement": "Actual Temperature (° F.)", "setting": "[1]", "result": 85.2, "unit": "° F."}, {"measurement": "Rise in Temperature (° F.) (Expected Minus Actual)", "setting": "[1]", "result": 13.5, "unit": "° F."}, {"measurement": "expected contribution of component to the temperature increase", "setting": "[1]; in Composition 10", "result": 5.13}, {"measurement": "expected contribution of component to the temperature increase", "setting": "[1]; in K-Y Warming (Composition 1)", "result": 6.75}]}, {"compound": "CCCCCCCCCCCCCC(=O)OC(C)C", "note": "[Isopropyl Myristate]", "values": [{"measurement": "Actual Temperature (° F.)", "setting": "[1]", "result": 75.2, "unit": "° F."}, {"measurement": "Rise in Temperature (° F.) (Expected Minus Actual)", "setting": "[1]", "result": 0.7, "unit": "° F."}]}, {"compound": "Polysorbate 60", "values": [{"measurement": "Actual Temperature (° F.)", "setting": "[1]", "result": 83.1, "unit": "° F."}, {"measurement": "Rise in Temperature (° F.) (Expected Minus Actual)", "setting": "[1]", "result": 10.6, "unit": "° F."}]}]}
